Measurements taken from US10350334B2, “Catheter locking solution having antimicrobial and anticoagulation properties” (Becton, Dickinson and Company, priority 2009, dated 2019).
Where “and” joins values, the source holds several entries; their conditions need not be identical. Equal entries are not always repeated.

Assays:
sheep plasma = experiment: Sheep's Plasma Clotting Assay (USP coagulation test); assay type: biochemical; details: for Equivalence to Heparin: calculated from volumes giving 50% clotting versus heparin standard
Method: In order to understand what the working concentration range could be for the anesthetics tested, a Sheep's Plasma Clotting Assay was performed. This test is based on the United States Pharmacopeia (USP) standard test for coagulation and is often used to understand heparin potency. […] Sheep plasma was thawed in a water bath set to 37° C. To facilitate thawing, the plasma in the bottle was inverted every 15 minutes. The plasma was thawed after about 45-60 minutes. The thawed sheep plasma was filtered through glass wool or filtered into a clean glass beaker or flask, to remove particulate matter and to activate it. About 70-80 mL of filtered sheep plasma was collected. Next, a set of test tubes were prepared (VWR Disposable 13×100-mm) in a 6×12 rack. Ten test tubes were needed for each test solution including ten test tubes for the heparin standard. […] For each test solution, every (10) test tube received different volumes of 0.9% NaCl. […] Next, the local anesthetics were added, namely, tetracaine at 30 mg/mL, dibucaine at 30 mg/mL, and bupivacaine at 38 mg/mL. Each of the ten test tubes received different volumes of test solutions, starting with 280 μL and increasing in volume by 20 μL until reaching a volume of 460 μL at the tenth tube. The total volume of saline and test solutions in each of the tubes was 800 μL. A standard solution, namely, USP heparin sodium standard, was also prepared in the same way, with the starting concentration of heparin being 5.6 U/mL. Next, 1 mL of sheep plasma for heparin assay (Bio-Supplies, Inc, P-SPR-1500) was pipetted into each tube, and the rack was gently shaken to ensure mixing. Two hundred μL of a 1% CaCl2 solution was placed into each tube. The total volume for each tube is 2 mL. Each tube was capped with a VWR Plug-type cap, and contents of each tube were inverted six times to ensure that the entire inner wall of each tube was wet. Tubes were incubated for 1 hour at room temperature. After the 1 hour time period, the extent of clotting in each tube was determined by gently shaking each individual test tube (tapping the end gently is acceptable) and then tilting the tube to observe a clot both vertically and horizontally. The degree to which each tube developed a clot was recorded using the following criteria (per the USP Standard) for the visual inspection of the tubes: • 0% Clotting=No apparent clot formed. • 25% Clotting=Small observable clot with mostly liquid. Clot is very mobile. • 50% Clotting=Plasma is completely clotted but mobile. • 75% Clotting=Clot is not mobile but liquid is still present. • 100% Clotting=Clot is not mobile and no liquid is present.
Because of the testing protocol, starting concentrations of anesthetics were diluted from the original formulation. Calculations can be made to compare the efficacy of these anesthetics to the standard anticoagulant heparin by calculating the point at which both standard and test samples yield 50% clotting. Using this calculation, the anesthetic concentration can be referenced back to a measure of U/mL of heparin equivalence.

S. epidermidis = experiment: Minimum Biofilm Inhibitory Concentration (MBIC) test; assay type: cell-based, Staphylococcus epidermidis; details: for MBIC: adhered cells, 24 hours incubation; for MBIC Assuming 2 mL lock volume: amount in 2 mL lock volume
Method: To further evaluate the efficacy of local anesthetics in antimicrobial lock solutions of the present invention, the minimum concentration at which these drugs can inhibit biofilm growth was tested. The local anesthetics identified in Table 4 were tested against three different species of bacteria identified in Table 3 to assess the antimicrobial efficacy against adhered microbes. It is known that adhered microbes, or biofilms, can be more resistant to antimicrobials than planktonic cells.
Experiments were conducted against adhered microbes as follows: first, a test tube containing 10 mL of sterile TSB was inocubated with BD BBL™ Qualiswab™, with the strain of interest. The tube was placed in an incubator at 37° C. overnight. The next day, a flask containing 25 mL of sterile TSB (or Sabouraud Dextrose Broth (SDB) for fungal species) was inoculated with 1 mL of bacterial suspension. The flask was placed in an incubator at 37° C. and shaken at 150 RPM. The next day a new flask containing 25 mL of TSB (or SDB) media was inoculated with 1 mL from the previous culture. The bacterial or fungal species were allowed to grow to log phase.
After the microbes entered the log phase, their concentration was checked to ensure that they had reached a minimum of 1×10^8 CFU/mL per a 0.5 MacFarland standard. Microbes were diluted to a concentration of 1×10^5 CFU/mL using a nephelometer and 200 μL of the microbial suspensions were plated on each of the wells of a 96 well plate. The plate was incubated in a standard incubator at 37° C. for 2 hours to allow for microbial cell adhesion. Next, dilutions of the desired concentrations of antimicrobials were prepared. In a separate, blank plate, 1:2 serial dilutions were prepared with the highest concentration of the antimicrobial to the left of the plate, decreasing in concentration towards the right of the plate. For example, 170 μL of the highest concentration of an antimicrobial was dispensed in column 1 (left of plate). Each of the rest of the columns received 170 μL of saline. Column 2 received 170 μL of antimicrobial, making for a 1:2 dilution (or 50% of original concentration). Contents of Column 2 were then transferred to 3, then from 3 to 4, and so forth. Each well was supplemented with 20% media (TSB for S. epidermidis and P. aeruginosa and SDB for C. albicans), thereby ensuring the viability of the cells over the test time period (24 hours). Positive control wells had 20% media in saline. The bacterial plate was removed from the incubator, and bacterial suspension discarded (adhered cells remain on plate). The antimicrobial formulations identified in Table 4 were then added to the bacterial plate and incubated in a standard incubator at 37° C. for 24 hours. After this time period, solutions in the plate were discarded and plates were rinsed with 200 μL of saline. The cells were then fixed with 200 μL of 95% ethanol for 30 minutes, and allowed to air dry for 10 minutes. Next, the cells were stained for 20 minutes with 250 μL of a filtered solution of 2% crystal violet dye. The plates were then rinsed three times with water, and the 2% crystal violet dye was solubilized with 300 μL of 95% ethanol. The plates were allowed to stand for 10 minutes to complete solubilization and then the plates were read on a spectrophotometer at 570 nm absorbance, wherein high absorbance readings of >0.600 indicated microbial growth. Columns in the plate that had no growth were recorded as the […] (MBIC). FIG. 2 illustrates the MBIC corresponding to the specific local anesthetics.

SMILES	coagulation (sheep plasma; at all concentrations tested) [%]	MBIC (S. epidermidis) [mg/mL]	MBIC Assuming 2 mL lock volume (S. epidermidis) [mg]	volume at 50% coagulation (sheep plasma; Rep 1) [µL]	Equivalence to Heparin (sheep plasma; per replicate, HCl)	Equivalence to Heparin (sheep plasma; per replicate, listed as tetracaine, HCl) [U/mL]	50% clotting range (sheep plasma; final concentration in tube, 1 hour at room temperature, per replicate, HCl)	MBIC (S. epidermidis; HCl) [mg/mL]	MBIC (S. epidermidis; listed as tetracaine, HCl) [mg/mL]
CCCCN1CCCCC1C(=O)Nc1c(C)cccc1C.Cl (stereo not shown) [Bupivacaine, Bupivacaine HCl]	75	8.12	16.24						
CCCCNc1ccc(C(=O)OCCN(C)C)cc1.Cl [Tetracaine, Tetracaine HCl]			1.88	350	6.06 U/mL and 6.24 U/mL (2×)	6.25	5.4 mg/mL (2×) and 5.1-5.4 mg/mL	0.94	0.9
